Results published in article PMC4508061, “Selectivity Profiling and Biological Activity of Novel β-Carbolines as Potent and Selective DYRK1 Kinase Inhibitors” (PLoS ONE, 2015).

Experiments:
Assay in all cases: ProQinase radiometric kinase panel
Conditions in all cases: mean of 2 exp.
TSF1 = TSF1 (Homo sapiens, UniProt O75716)
MAP3K1 = MAP3K1 (Homo sapiens, UniProt Q13233)
ACK1 = ACK1 (Homo sapiens, UniProt Q07912)
NIK = NIK (Homo sapiens, UniProt Q99558)
RET = RET (Homo sapiens, UniProt P07949)
CAMKK1 = CAMKK1 (Homo sapiens, UniProt Q8N5S9)
CK1-delta = CK1-delta (Homo sapiens, UniProt P48730)
EIF2AK2 = EIF2AK2 (Homo sapiens, UniProt P19525)
PAK2 = PAK2 (Homo sapiens, UniProt Q13177)
PDGFR-alpha = PDGFR-alpha (Homo sapiens, UniProt P16234)
CAMK2D = CAMK2D (Homo sapiens, UniProt Q13557)
NEK4 = NEK4 (Homo sapiens, UniProt P51957)
PRKG1 = PRKG1 (Homo sapiens, UniProt Q13976)
VRK1 = VRK1 (Homo sapiens, UniProt Q99986)
FGF-R1 = FGF-R1 (Homo sapiens, UniProt P11362)
BRSK1 = BRSK1 (Homo sapiens, UniProt Q8TDC3)
FLT3 = FLT3 (Homo sapiens, UniProt P36888)
VEGF-R2 = VEGF-R2 (Homo sapiens, UniProt P35968)
TLK2 = TLK2 (Homo sapiens, UniProt Q86UE8)
DMPK = DMPK (Homo sapiens, UniProt Q09013)
DDR2 = DDR2 (Homo sapiens, UniProt Q16832)
MEK2 = MEK2 (Homo sapiens, UniProt P36507)
STK33 = STK33 (Homo sapiens, UniProt Q9BYT3)
ACV-RL1 = ACV-RL1 (Homo sapiens, UniProt P37023)
RIPK5 = RIPK5 (Homo sapiens, UniProt Q6XUX3)
ERBB4 = ERBB4 (Homo sapiens, UniProt Q15303)
PKC-gamma = PKC-gamma (Homo sapiens, UniProt P05129)
JAK3 = JAK3 (Homo sapiens, UniProt P52333)
PKC-alpha = PKC-alpha (Homo sapiens, UniProt P17252)
EPHB2 = EPHB2 (Homo sapiens, UniProt P29323)
DNA-PK = DNA-PK (Homo sapiens, UniProt P78527)
JAK2 = JAK2 (Homo sapiens, UniProt O60674)
TRK-A = TRK-A (Homo sapiens, UniProt P04629)
PIM1 = PIM1 (Homo sapiens, UniProt P11309)
PKC-iota = PKC-iota (Homo sapiens, UniProt P41743)
ALK = ALK (Homo sapiens, UniProt Q9UM73)
PKA = PKA (Homo sapiens, UniProt P17612)
MKK6 (S207D/T211D) = MKK6 (S207D/T211D) (Homo sapiens, UniProt P52564, S207D/T211D)
RPS6KA4 = RPS6KA4 (Homo sapiens, UniProt O75676)

Chain of PRKG1 (Q13976 whole entry): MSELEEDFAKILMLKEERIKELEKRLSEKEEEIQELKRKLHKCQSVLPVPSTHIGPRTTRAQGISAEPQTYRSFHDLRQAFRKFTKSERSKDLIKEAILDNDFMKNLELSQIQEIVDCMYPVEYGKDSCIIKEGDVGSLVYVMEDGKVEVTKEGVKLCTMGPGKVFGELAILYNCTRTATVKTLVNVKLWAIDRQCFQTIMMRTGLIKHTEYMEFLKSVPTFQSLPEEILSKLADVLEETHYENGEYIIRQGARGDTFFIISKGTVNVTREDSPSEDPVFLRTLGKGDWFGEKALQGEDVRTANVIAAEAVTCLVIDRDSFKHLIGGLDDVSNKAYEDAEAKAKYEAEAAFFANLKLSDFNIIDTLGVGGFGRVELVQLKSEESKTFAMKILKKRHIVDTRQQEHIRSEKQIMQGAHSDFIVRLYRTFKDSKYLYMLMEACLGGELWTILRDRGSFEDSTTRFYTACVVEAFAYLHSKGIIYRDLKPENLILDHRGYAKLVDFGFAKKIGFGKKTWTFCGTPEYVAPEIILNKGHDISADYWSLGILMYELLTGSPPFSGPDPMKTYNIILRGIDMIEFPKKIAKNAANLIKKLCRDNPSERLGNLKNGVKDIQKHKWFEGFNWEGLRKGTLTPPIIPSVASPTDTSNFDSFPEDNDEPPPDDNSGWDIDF
Chain of VRK1 (Q99986 whole entry): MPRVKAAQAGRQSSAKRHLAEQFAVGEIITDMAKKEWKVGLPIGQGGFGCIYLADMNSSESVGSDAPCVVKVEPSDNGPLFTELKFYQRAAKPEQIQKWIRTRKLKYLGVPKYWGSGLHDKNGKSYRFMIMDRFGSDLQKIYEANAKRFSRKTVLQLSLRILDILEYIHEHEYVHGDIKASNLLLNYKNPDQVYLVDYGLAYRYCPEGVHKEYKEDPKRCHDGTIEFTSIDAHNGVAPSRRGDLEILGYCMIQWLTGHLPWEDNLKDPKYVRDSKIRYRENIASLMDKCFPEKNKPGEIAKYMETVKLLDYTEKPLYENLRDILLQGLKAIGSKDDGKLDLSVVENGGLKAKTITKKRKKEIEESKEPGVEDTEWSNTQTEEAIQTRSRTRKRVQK
Chain of JAK2 (O60674 whole entry): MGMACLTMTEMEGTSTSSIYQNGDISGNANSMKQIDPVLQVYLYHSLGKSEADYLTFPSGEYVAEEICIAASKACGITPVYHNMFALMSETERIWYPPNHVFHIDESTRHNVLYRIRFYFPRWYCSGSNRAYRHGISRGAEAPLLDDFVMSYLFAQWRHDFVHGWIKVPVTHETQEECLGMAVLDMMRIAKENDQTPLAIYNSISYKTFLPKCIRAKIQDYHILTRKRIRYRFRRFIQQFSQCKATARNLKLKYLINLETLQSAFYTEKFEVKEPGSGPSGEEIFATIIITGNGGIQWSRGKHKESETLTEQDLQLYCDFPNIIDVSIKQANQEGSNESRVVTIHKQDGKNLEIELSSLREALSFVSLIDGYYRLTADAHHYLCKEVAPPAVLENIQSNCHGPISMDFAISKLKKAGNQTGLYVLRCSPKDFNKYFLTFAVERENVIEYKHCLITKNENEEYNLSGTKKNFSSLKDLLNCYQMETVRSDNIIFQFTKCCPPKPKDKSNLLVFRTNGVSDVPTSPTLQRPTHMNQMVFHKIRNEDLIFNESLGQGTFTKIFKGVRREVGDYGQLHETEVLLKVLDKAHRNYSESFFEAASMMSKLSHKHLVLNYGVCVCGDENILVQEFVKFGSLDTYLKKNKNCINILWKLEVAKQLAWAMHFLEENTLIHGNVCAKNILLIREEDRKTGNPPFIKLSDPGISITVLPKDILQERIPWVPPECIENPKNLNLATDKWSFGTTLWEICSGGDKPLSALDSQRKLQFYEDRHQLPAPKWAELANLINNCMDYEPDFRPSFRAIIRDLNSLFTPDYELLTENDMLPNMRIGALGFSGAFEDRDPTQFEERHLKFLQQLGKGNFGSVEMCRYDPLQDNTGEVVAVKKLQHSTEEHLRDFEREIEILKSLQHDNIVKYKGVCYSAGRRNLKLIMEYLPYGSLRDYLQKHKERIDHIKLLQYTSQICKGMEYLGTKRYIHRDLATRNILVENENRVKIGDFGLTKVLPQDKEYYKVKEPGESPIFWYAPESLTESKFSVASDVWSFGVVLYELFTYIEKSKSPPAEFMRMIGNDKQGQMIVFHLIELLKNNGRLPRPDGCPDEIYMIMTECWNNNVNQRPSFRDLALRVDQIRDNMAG
Chain of PIM1 (P11309 whole entry): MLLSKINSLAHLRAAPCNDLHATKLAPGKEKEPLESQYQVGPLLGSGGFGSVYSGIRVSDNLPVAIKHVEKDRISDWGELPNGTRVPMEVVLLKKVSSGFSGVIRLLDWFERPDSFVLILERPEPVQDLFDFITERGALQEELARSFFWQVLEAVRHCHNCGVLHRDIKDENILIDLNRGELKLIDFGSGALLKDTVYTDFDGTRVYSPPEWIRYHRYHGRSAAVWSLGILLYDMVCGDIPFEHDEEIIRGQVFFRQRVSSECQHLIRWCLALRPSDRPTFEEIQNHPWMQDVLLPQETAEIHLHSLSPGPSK
Chain of RET (P07949 29-1114): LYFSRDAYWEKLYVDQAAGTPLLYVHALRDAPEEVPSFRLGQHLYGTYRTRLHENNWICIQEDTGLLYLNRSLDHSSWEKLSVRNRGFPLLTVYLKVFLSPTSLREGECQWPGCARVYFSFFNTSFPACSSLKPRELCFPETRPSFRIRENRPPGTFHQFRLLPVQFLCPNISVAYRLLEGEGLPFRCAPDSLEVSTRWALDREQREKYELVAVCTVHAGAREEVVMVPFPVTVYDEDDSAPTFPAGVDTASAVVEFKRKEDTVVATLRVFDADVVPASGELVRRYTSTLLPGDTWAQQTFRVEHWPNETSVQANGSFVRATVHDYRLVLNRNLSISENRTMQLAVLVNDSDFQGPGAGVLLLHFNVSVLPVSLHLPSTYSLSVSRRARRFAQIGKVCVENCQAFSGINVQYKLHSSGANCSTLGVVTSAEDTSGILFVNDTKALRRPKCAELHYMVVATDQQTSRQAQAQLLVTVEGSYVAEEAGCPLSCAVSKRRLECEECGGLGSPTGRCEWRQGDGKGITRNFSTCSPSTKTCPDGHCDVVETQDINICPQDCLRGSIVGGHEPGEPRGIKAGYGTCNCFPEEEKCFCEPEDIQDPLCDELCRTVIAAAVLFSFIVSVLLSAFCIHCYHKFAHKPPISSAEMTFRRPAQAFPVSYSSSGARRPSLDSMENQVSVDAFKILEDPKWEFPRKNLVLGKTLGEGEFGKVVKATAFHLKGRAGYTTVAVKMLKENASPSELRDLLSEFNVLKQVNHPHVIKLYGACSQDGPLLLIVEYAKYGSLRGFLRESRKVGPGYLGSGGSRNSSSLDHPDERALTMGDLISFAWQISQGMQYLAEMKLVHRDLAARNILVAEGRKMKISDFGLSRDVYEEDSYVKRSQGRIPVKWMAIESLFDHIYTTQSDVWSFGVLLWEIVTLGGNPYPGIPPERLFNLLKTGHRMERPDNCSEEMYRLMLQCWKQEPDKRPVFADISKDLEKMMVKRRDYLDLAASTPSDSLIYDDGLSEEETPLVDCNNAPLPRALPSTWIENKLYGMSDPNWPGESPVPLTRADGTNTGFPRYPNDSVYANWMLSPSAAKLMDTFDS
Chain of EPHB2 (P29323 19-1055): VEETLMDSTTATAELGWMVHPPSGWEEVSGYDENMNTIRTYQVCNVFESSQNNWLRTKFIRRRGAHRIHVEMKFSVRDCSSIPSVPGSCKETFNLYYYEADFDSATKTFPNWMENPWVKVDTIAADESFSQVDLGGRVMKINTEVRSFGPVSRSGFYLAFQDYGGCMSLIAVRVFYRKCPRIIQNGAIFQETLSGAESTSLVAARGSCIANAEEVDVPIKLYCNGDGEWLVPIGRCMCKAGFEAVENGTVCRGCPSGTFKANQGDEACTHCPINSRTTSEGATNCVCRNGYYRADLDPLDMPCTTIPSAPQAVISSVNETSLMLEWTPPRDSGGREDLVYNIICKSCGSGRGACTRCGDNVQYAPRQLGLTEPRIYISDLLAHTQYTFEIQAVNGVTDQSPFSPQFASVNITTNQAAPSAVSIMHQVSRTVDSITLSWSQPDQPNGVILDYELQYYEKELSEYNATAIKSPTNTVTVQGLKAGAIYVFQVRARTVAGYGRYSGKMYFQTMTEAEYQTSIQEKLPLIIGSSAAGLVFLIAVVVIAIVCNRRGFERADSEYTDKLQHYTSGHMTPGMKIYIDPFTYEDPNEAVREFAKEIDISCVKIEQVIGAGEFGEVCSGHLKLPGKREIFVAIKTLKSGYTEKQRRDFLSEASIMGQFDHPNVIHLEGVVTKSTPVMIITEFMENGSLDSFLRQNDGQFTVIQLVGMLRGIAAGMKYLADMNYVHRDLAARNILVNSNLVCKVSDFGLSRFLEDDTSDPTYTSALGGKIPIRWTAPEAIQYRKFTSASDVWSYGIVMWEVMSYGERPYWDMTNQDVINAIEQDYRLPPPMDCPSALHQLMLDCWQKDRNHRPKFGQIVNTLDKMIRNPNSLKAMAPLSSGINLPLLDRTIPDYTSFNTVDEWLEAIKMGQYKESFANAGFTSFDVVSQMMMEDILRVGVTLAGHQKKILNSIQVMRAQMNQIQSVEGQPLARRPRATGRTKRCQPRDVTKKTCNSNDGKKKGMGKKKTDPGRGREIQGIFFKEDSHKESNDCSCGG
Chain of MKK6 (S207D/T211D) (P52564 whole entry S207D/T211D): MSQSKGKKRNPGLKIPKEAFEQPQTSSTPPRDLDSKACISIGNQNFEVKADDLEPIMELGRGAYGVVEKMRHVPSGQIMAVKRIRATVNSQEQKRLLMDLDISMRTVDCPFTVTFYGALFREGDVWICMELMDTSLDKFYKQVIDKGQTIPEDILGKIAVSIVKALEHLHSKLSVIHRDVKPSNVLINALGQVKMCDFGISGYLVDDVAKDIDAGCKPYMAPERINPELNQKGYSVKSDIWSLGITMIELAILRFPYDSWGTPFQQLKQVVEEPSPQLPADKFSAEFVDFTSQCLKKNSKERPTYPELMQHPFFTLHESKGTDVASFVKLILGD

- residual activity at 1 µM, Mean (TSF1): 97 % of control
- residual activity at 1 µM, Mean (MAP3K1): 97 % of control
- residual activity at 1 µM, Mean (ACK1): 97 % of control
- residual activity at 1 µM, Mean (NIK): 87 % of control
- residual activity at 1 µM, Mean (RET): 89 % of control
- residual activity at 1 µM, Mean (CAMKK1): 89 % of control
- residual activity at 1 µM, Mean (CK1-delta): 71 % of control
- residual activity at 1 µM, Mean (EIF2AK2): 95 % of control
- residual activity at 1 µM, Mean (PAK2): 105 % of control
- residual activity at 1 µM, Mean (PDGFR-alpha): 102 % of control
- residual activity at 1 µM, Mean (CAMK2D): 87 % of control
- residual activity at 1 µM, Mean (NEK4): 98 % of control
- residual activity at 1 µM, Mean (PRKG1): 87 % of control
- residual activity at 1 µM, Mean (VRK1): 89 % of control
- residual activity at 1 µM, Mean (FGF-R1): 97 % of control
- residual activity at 1 µM, Mean (BRSK1): 107 % of control
- residual activity at 1 µM, Mean (FLT3): 70 % of control
- residual activity at 1 µM, Mean (VEGF-R2): 98 % of control
- residual activity at 1 µM, Mean (TLK2): 108 % of control
- residual activity at 1 µM, Mean (DMPK): 101 % of control
- residual activity at 1 µM, Mean (DDR2): 97 % of control
- residual activity at 1 µM, Mean (MEK2): 37 % of control
- residual activity at 1 µM, Mean (STK33): 87 % of control
- residual activity at 1 µM, Mean (ACV-RL1): 91 % of control
- residual activity at 1 µM, Mean (RIPK5): 91 % of control
- residual activity at 1 µM, Mean (ERBB4): 90 % of control
- residual activity at 1 µM, Mean (PKC-gamma): 108 % of control
- residual activity at 1 µM, Mean (JAK3): 101 % of control
- residual activity at 1 µM, Mean (PKC-alpha): 111 % of control
- residual activity at 1 µM, Mean (EPHB2): 99 % of control
- residual activity at 1 µM, Mean (DNA-PK): 63 % of control
- residual activity at 1 µM, Mean (JAK2): 99 % of control
- residual activity at 1 µM, Mean (TRK-A): 84 % of control
- residual activity at 1 µM, Mean (PIM1): 41 % of control
- residual activity at 1 µM, Mean (PKC-iota): 102 % of control
- residual activity at 1 µM, Mean (ALK): 98 % of control
- residual activity at 1 µM, Mean (PKA): 105 % of control
- residual activity at 1 µM, Mean (MKK6 (S207D/T211D)): 100 % of control
- residual activity at 1 µM, Mean (RPS6KA4): 95 % of control
Compound: COc1ccc2c3ccnc(Cl)c3n(CC#N)c2c1 [AnnH75]
